Assay results reported in article PMC4917279 (Journal of Medicinal Chemistry, 2016).

Experiments:
Experiment in all cases: KINOMEscan
Assay type in all cases: binding
Conditions in all cases: read-out: %Ctrl @ 1000 nM
[1] = target: T1, DMPK (Homo sapiens, UniProt Q09013)
T1 construct: purchased DiscoveRx KINOMEscan

[2] = target: T2, ABL1(Y253F)-phosphorylated (Homo sapiens, UniProt P00519, Y253F)
T2 construct: purchased DiscoveRx

[3] = target: T3, ERBB2 (Homo sapiens, UniProt P04626)
T3 construct: purchased DiscoveRx KINOMEscan

[4] = target: T4, MYLK2 (Homo sapiens, UniProt Q9H1R3)
T4 construct: purchased DiscoveRx KINOMEscan

[5] = target: T5, MARK4 (Homo sapiens, UniProt Q96L34)
T5 construct: purchased DiscoveRx KINOMEscan

[6] = target: T6, RIOK3 (Homo sapiens, UniProt O14730)
T6 construct: purchased DiscoveRx KINOMEscan

[7] = target: T7, TRKA (Homo sapiens, UniProt P04629)
T7 construct: purchased DiscoveRx KINOMEscan

[8] = target: T8, PIM3 (Homo sapiens, UniProt Q86V86)
T8 construct: purchased DiscoveRx KINOMEscan

[9] = target: T9, PIK3CA(C420R) (Homo sapiens, UniProt P42336, C420R)
T9 construct: purchased DiscoveRx KINOMEscan

[10] = target: T10, STK39 (Homo sapiens, UniProt Q9UEW8)
T10 construct: purchased DiscoveRx KINOMEscan

[11] = target: T11, FGFR3 (Homo sapiens, UniProt P22607)
T11 construct: purchased DiscoveRx KINOMEscan

[12] = target: T12, SRPK1 (Homo sapiens, UniProt Q96SB4)
T12 construct: purchased DiscoveRx KINOMEscan
T12 sequence (Q96SB4 whole entry): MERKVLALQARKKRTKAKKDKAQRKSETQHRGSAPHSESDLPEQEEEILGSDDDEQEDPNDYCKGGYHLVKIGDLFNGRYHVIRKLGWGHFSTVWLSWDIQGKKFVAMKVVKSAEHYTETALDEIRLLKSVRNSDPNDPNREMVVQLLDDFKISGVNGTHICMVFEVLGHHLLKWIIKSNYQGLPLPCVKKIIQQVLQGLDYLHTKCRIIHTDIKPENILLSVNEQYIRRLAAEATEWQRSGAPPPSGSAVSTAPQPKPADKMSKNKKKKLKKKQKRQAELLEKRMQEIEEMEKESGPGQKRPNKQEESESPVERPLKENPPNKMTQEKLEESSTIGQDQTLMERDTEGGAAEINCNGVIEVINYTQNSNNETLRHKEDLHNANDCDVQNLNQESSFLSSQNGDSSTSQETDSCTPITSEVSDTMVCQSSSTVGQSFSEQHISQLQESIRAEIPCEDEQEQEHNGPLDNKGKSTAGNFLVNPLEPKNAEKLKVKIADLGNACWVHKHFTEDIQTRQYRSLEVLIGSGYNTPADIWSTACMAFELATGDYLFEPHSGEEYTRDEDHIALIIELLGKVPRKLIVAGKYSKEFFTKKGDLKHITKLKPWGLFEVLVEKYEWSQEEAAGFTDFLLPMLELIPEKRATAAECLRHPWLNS

[13] = target: T13, MAP3K4 (Homo sapiens, UniProt Q9Y6R4)
T13 construct: purchased DiscoveRx KINOMEscan

[14] = target: T14, ERK4 (Homo sapiens, UniProt P31152)
T14 construct: purchased DiscoveRx KINOMEscan

[15] = target: T15, ANKK1 (Homo sapiens, UniProt Q8NFD2)
T15 construct: purchased DiscoveRx KINOMEscan

[16] = target: T16, CSNK1E (Homo sapiens, UniProt P49674)
T16 construct: purchased DiscoveRx KINOMEscan

[17] = target: T17, STK36 (Homo sapiens, UniProt Q9NRP7)
T17 construct: purchased DiscoveRx KINOMEscan

[18] = target: T18, CAMKK1 (Homo sapiens, UniProt Q8N5S9)
T18 construct: purchased DiscoveRx KINOMEscan

[19] = target: T19, NEK7 (Homo sapiens, UniProt Q8TDX7)
T19 construct: purchased DiscoveRx KINOMEscan

[20] = target: T20, MET (Homo sapiens, UniProt P08581)
T20 construct: purchased DiscoveRx KINOMEscan

[21] = target: T21, ABL1(T315I)-phosphorylated (Homo sapiens, UniProt P00519, T315I)
T21 construct: purchased DiscoveRx

[22] = target: T22, RET(V804L) (Homo sapiens, UniProt P07949, V804L)
T22 construct: purchased DiscoveRx KINOMEscan
T22 sequence (P07949 29-1114 V804L): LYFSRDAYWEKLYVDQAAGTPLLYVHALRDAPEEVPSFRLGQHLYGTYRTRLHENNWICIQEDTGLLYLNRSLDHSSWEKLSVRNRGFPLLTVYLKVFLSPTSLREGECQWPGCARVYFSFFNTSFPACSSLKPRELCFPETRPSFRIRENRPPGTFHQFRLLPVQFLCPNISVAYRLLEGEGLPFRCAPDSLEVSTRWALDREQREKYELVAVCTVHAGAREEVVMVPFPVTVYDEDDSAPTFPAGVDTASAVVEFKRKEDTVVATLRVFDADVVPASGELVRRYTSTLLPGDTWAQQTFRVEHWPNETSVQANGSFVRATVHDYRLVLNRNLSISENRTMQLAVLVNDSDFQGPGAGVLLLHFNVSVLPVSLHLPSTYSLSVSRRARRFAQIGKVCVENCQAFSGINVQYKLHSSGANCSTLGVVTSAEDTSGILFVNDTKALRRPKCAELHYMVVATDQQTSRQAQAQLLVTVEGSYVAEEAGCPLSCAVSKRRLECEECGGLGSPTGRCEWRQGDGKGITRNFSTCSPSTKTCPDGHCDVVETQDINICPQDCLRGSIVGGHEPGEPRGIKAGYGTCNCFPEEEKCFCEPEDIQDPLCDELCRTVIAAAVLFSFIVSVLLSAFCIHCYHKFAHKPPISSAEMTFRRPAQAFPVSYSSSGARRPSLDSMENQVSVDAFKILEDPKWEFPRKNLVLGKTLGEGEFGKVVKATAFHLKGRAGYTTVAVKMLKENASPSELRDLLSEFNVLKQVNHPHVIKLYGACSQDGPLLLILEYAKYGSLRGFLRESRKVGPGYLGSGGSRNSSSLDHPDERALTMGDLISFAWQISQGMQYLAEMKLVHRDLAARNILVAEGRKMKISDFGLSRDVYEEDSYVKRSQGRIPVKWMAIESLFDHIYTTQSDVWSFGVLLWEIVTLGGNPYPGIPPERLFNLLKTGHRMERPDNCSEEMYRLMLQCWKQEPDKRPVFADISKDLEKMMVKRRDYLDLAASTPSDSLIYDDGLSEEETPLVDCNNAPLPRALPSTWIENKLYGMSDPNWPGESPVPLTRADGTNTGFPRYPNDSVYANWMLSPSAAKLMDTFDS

[23] = target: T23, ABL1-phosphorylated (Homo sapiens, UniProt P00519)
T23 construct: purchased DiscoveRx

[24] = target: T24, NEK10 (Homo sapiens, UniProt Q6ZWH5)
T24 construct: purchased DiscoveRx KINOMEscan

[25] = target: T25, RIOK2 (Homo sapiens, UniProt Q9BVS4)
T25 construct: purchased DiscoveRx KINOMEscan

[26] = target: T26, FGFR1 (Homo sapiens, UniProt P11362)
T26 construct: purchased DiscoveRx KINOMEscan

[27] = target: T27, p38-alpha (Homo sapiens, UniProt Q16539)
T27 construct: purchased DiscoveRx KINOMEscan
T27 sequence (Q16539 whole entry): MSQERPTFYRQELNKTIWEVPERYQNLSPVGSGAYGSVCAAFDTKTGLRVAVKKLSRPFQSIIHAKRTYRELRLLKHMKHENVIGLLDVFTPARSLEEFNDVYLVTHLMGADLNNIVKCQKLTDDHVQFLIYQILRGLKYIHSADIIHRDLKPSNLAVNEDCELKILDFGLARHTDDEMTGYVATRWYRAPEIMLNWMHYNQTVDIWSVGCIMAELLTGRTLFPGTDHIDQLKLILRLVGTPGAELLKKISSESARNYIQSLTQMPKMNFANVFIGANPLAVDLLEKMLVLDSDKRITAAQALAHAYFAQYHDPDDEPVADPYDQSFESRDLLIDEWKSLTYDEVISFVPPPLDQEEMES

[28] = target: RPS6KA4(Kin.Dom.2-C-terminal) (Homo sapiens, UniProt O75676)
[29] = target: T28, NLK (Homo sapiens, UniProt Q9UBE8)
T28 construct: purchased DiscoveRx KINOMEscan

[30] = target: T29, DDR2 (Homo sapiens, UniProt Q16832)
T29 construct: purchased DiscoveRx KINOMEscan
T29 sequence (Q16832 22-855): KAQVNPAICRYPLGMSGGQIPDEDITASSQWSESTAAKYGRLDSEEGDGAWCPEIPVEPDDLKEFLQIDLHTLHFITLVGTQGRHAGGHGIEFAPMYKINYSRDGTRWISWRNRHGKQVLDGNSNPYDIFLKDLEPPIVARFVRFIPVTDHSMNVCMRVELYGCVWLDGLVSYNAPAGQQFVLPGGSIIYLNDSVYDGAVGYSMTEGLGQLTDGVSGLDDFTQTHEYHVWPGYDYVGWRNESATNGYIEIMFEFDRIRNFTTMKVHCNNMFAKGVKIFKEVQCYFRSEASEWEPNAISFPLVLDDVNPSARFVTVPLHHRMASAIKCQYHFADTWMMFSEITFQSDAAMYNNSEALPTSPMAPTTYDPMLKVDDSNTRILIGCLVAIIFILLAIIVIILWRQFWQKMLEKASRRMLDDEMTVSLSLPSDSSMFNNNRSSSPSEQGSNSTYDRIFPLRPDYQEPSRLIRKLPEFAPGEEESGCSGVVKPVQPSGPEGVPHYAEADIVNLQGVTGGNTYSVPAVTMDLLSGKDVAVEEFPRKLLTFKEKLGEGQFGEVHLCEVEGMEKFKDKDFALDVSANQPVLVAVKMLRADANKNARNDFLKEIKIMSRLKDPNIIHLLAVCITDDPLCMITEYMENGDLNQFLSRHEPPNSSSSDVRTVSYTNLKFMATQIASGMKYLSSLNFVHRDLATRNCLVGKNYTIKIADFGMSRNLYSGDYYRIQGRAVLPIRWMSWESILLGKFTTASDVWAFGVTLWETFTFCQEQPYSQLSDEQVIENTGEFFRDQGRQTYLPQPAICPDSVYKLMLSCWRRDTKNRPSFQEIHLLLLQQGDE

[31] = target: T30, CSNK2A1 (Homo sapiens, UniProt P68400)
T30 construct: purchased DiscoveRx KINOMEscan

[32] = target: T31, ACVR1 (Homo sapiens, UniProt Q04771)
T31 construct: purchased DiscoveRx
T31 sequence (Q04771 21-509): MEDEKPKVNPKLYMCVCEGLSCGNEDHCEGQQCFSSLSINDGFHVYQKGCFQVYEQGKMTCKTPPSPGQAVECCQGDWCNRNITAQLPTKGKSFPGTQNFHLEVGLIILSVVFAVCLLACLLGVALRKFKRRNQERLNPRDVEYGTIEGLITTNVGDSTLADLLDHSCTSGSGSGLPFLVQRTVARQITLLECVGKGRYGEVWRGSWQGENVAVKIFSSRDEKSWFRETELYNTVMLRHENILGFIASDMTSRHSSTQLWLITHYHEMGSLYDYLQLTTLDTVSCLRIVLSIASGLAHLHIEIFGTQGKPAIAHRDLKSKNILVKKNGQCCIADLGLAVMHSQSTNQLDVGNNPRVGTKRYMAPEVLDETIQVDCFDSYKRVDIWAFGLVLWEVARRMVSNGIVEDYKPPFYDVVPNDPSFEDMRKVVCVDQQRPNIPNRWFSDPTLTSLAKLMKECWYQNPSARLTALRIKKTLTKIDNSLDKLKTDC

[33] = target: T32, EGFR(G719S) (Homo sapiens, UniProt P00533, G719S)
T32 construct: purchased DiscoveRx KINOMEscan

[34] = target: T33, ERK5 (Homo sapiens, UniProt Q13164)
T33 construct: purchased DiscoveRx KINOMEscan

[35] = target: T34, FLT3(D835Y) (Homo sapiens, UniProt P36888, D835Y)
T34 construct: purchased DiscoveRx KINOMEscan

[36] = target: T35, MEK2 (Homo sapiens, UniProt P36507)
T35 construct: purchased DiscoveRx KINOMEscan

[37] = target: T36, MET(M1250T) (Homo sapiens, UniProt P08581, M1250T)
T36 construct: purchased DiscoveRx KINOMEscan

[38] = target: T37, CAMK1D (Homo sapiens, UniProt Q8IU85)
T37 construct: purchased DiscoveRx KINOMEscan

[39] = target: T38, TBK1 (Homo sapiens, UniProt Q9UHD2)
T38 construct: purchased DiscoveRx KINOMEscan

[40] = target: T39, ZAK (Homo sapiens, UniProt Q9NYL2)
T39 construct: purchased DiscoveRx

[41] = target: T40, ERK1 (Homo sapiens, UniProt P27361)
T40 construct: purchased DiscoveRx KINOMEscan
T40 sequence (P27361 whole entry): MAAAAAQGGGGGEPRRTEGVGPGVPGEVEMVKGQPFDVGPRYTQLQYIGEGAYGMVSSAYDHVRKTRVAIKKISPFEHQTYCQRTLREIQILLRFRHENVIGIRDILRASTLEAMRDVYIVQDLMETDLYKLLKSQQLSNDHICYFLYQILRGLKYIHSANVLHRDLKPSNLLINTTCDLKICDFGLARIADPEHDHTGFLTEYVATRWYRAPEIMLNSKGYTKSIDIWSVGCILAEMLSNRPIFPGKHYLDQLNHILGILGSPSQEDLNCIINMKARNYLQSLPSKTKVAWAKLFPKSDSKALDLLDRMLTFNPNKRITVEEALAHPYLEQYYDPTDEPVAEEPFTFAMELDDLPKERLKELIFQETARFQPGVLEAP

[42] = target: T41, DYRK2 (Homo sapiens, UniProt Q92630)
T41 construct: purchased DiscoveRx KINOMEscan

[43] = target: T42, SNRK (Homo sapiens, UniProt Q9NRH2)
T42 construct: purchased DiscoveRx KINOMEscan

[44] = target: T43, LATS2 (Homo sapiens, UniProt Q9NRM7)
T43 construct: purchased DiscoveRx KINOMEscan
T43 sequence (Q9NRM7 whole entry): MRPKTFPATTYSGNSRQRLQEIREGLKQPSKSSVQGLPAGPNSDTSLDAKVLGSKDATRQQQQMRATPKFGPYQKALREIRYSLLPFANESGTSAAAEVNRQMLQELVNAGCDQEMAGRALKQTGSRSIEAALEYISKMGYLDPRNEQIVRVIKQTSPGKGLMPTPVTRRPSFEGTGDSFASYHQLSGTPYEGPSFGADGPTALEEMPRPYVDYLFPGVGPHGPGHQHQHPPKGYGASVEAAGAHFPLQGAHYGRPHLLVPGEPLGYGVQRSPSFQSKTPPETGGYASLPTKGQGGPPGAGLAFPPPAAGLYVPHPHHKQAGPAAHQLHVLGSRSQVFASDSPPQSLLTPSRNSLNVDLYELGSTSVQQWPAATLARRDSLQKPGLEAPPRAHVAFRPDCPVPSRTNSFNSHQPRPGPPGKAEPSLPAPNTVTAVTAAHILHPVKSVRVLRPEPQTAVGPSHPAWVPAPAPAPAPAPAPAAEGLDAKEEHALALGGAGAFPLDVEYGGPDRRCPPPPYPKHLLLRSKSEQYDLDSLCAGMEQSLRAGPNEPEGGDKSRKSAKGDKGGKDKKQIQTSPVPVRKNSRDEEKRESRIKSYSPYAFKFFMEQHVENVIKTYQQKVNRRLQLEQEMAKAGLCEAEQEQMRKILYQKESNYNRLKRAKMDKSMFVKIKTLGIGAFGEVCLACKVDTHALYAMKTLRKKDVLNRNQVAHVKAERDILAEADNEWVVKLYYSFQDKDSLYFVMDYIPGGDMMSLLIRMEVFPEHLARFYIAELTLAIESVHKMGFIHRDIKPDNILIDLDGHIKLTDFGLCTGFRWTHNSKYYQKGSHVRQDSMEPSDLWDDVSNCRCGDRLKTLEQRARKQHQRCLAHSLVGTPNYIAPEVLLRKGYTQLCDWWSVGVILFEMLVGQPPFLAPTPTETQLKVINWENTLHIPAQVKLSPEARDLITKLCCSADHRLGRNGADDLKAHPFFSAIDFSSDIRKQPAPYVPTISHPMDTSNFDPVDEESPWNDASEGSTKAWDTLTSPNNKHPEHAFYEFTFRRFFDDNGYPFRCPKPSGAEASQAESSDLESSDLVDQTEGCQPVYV

CCN(C(=O)CO)[C@H]1CN(/C(=N\C#N)Nc2cccc(OC(F)F)c2)N=C1c1ccc(Cl)c(Cl)c1 [(S)-4]
remaining binding at 1 µM [1]: 100%
remaining binding at 1 µM [2]: 100%
remaining binding at 1 µM [3]: 87%
remaining binding at 1 µM [4]: 100%
remaining binding at 1 µM [5]: 75%
remaining binding at 1 µM [6]: 46%
remaining binding at 1 µM [7]: 93%
remaining binding at 1 µM [8]: 88%
remaining binding at 1 µM [9]: 76%
remaining binding at 1 µM [10]: 77%
remaining binding at 1 µM [11]: 88%
remaining binding at 1 µM [12]: 57%
remaining binding at 1 µM [13]: 75%
remaining binding at 1 µM [14]: 100%
remaining binding at 1 µM [15]: 92%
remaining binding at 1 µM [16]: 86%
remaining binding at 1 µM [17]: 81%
remaining binding at 1 µM [18]: 84%
remaining binding at 1 µM [19]: 100%
remaining binding at 1 µM [20]: 100%
remaining binding at 1 µM [21]: 100%
remaining binding at 1 µM [22]: 84%
remaining binding at 1 µM [23]: 90%
remaining binding at 1 µM [24]: 100%
remaining binding at 1 µM [25]: 100%
remaining binding at 1 µM [26]: 59%
remaining binding at 1 µM [27]: 86%
remaining binding at 1 µM [28]: 93%
remaining binding at 1 µM [29]: 100%
remaining binding at 1 µM [30]: 100%
remaining binding at 1 µM [31]: 78%
remaining binding at 1 µM [32]: 96%
remaining binding at 1 µM [33]: 78%
remaining binding at 1 µM [34]: 80%
remaining binding at 1 µM [35]: 78%
remaining binding at 1 µM [36]: 90%
remaining binding at 1 µM [37]: 86%
remaining binding at 1 µM [38]: 90%
remaining binding at 1 µM [39]: 82%
remaining binding at 1 µM [40]: 95%
remaining binding at 1 µM [41]: 100%
remaining binding at 1 µM [42]: 100%
remaining binding at 1 µM [43]: 85%
remaining binding at 1 µM [44]: 100%
